≈ marks a conversion by molar mass, not a printed value. Like-named read-outs stand apart in the source and are kept apart here.
Columns and labels:
[1] = test system: C. albicans and C. neoformans; assay: MIC/MFC, summary over all fungal strains; format: cell-based, Candida albicans, Cryptococcus neoformans
Protocol: (§1) In vitro antifungal assays. The MIC assays for C. albicans (K1, SC5314, Gu5, ATCC90028, R01, R02, R03 and R04 strains) and C. neoformans (H99, MYA737 and JEC21 strains) were conducted according to a previously described protocol. The cultured fungal cells were collected at 2.5 × 10^3 CFU/mL in RPMI 1640 medium to give the working suspension. Two- […]
(§2) plate to give 50 µL compound solution in each well. Then 50 µL of the cell suspension was added to each well. Wells containing cells in RPMI without any polymer or antifungal drug were used as drug-free controls, and wells containing RPMI medium only were used as cell-free controls. The plate was gently stirred for 10 seconds and then incubated at 30 °C. After C. albicans and C. neoformans cells were incubated for 24 h and 48 h, respectively, fungal cell growth was checked visually. The MIC values were identified as the lowest concentration […]
C. albicans . The MFC assay for Candida and Cryptococcus was conducted after the MIC test.
An aliquot of 3 µL premixed suspension from each well was plated on the yeast extract-peptone-dextrose (YPD) agar. The plates were incubated at 30 °C for 24 h and 48 h, respectively, for C. albicans cells and C. neoformans cells. Then the plate was inspected visually for colony formation. […]

ICR mice = assay: In vivo acute toxicity, single IV injection
Protocol: In vivo acute toxicity. All animal procedures were performed in accordance with the
Guidelines for Care and Use of Laboratory Animals of the Shanghai Tenth People’s Hospital
(License number: SYXK( 沪)-2021-0012), and experiments were approved by the Animal
Ethics Committee of the Shanghai Tenth People’s Hospital, Tongji University School of
was performed on 6-weeks old female ICR mice (n = 10) using the previously reported
prepared in DMSO and further diluted into sterile saline to a final concentration of 0.3 mg/mL
and 3 mg/kg, respectively, and mice injected with saline were used as controls. After a single
injection, all survival mice were weighed daily for 14 days. The organs (kidney, liver, and
spleen) (n = 2) and blood of mice treated by PDAP 20 or saline (n = 8) were collected on the

C. albicans SC5314 = assay: Biofilm-induced fungal keratitis model; format: in vivo, mouse (male BALB/c); settings: 10 μL every 5 min for 1 h, then every 30 min for 7 h, versus saline, n = 10
Protocol: Medicine (Accreditation number of the laboratory: SHDSYY-2021-1729). The experiment […]
(§3) method. […] AmpB was
(§4) (2.5% DMSO in final solution).
(§5) The organs (kidney, liver, and
(§6) 14th day for histological analysis and blood biochemistry analysis.
(§7) 30 min during the next 7 h.
C. albicans biofilm formation on contact lenses. The contact lenses (Biomedic ®, Cooper […]
Then the discs were transferred to a […]
(§8) and incubated at rt with shaking at 100 rpm. After 6 hours of incubation, the suspension was […]
addition of 150 μL fresh RPMI medium into each well. […]
All mice were killed and the eyeballs of each mouse were collected immediately 30 min after the administration of the last eye drop. Ten eyeballs from each group were homogenized for quantitative analysis of fungal counts with the number of CFUs expressed as mean log (CFU per eye), and the remaining four eyeballs were collected for histological analysis. […]
After incubation for 24 h at 30 °C, the colonies were counted and the number of CFUs was […]
expressed as mean log 10 (CFU per eye). […]
Statistical Analysis. […] Significance between two groups was determined by two-tailed t-test. […] All results were expressed as mean values ± s.d. n = 3 for each in vitro statistical analysis. n = 8 or 10 for each in vivo statistical analysis. […]

C. albicans = assay: MIC assay (in vitro antifungal assay); format: cell-based, Candida albicans; settings: for MIC: Candida albicans
Protocol: as §1
as §2, with “Then” for “plate to give 50 µL compound solution in each well. Then”, “visually.” for “visually. The MIC values were identified as the lowest concentration”

BALB/c mice eyes = format: in vivo, mouse; settings: 15 mg mL^−1 eye drops every 5 min for 1 h, then every 30 min for 7 h; male BALB/c, n = 3
Protocol: Medicine (Accreditation number of the laboratory: SHDSYY-2021-1729). The experiment
as §3, §4, §5, §6, §7
C. albicans biofilm formation on contact lenses. The contact lenses (Biomedic ®, Cooper
Then the discs were transferred to a
as §8

C[C@@H]1[C@H](O)[C@@H](C)/C=C/C=C/C=C/C=C/C=C/C=C/C=C/[C@H](O[C@@H]2O[C@H](C)[C@@H](O)[C@H](N)[C@@H]2O)C[C@@H]2O[C@](O)(C[C@@H](O)C[C@@H](O)[C@H](O)CC[C@@H](O)C[C@@H](O)CC(=O)O[C@H]1C)C[C@H](O)[C@H]2C(=O)O [AmpB, amphotericin B]
MIC against all strains of C. albicans and C. neoformans (range) [1]: 1.2 to 3.1 µg/mL | Mice died within 48 h (ICR mice; single IV dose of 3 mg kg^−1, ICR mice, n = 10): 90% | Reduction of colonies, log CFU per eye (C. albicans SC5314; AmpB 1 mg mL^−1 eye drops): 1.8 log CFU per eye | MIC (C. albicans; 24 h, read-out: MIC C. albicans R01): 1.2 µg/mL (≈ 1.3 µM) | MIC (C. albicans; 24 h, read-out: MIC C. albicans R04): 1.6 µg/mL (≈ 1.73 µM) | MIC (C. albicans; ATCC90028, 24 h, read-out: MIC C. albicans ATCC90028): 1.6 µg/mL (≈ 1.73 µM) | MIC (C. albicans; SC5314, 24 h, read-out: MIC C. albicans SC5314): 1.6 µg/mL (≈ 1.73 µM)

poly(DL‐diaminopropionic acid) [PDAP20]
MIC against all strains of C. albicans and C. neoformans (range) [1]: 0.1 to 0.8 µg/mL | Corneal histology (H&E) after topical administration (BALB/c mice eyes): no obvious toxicity | Survival after IV injection (ICR mice; single IV dose of 100 mg kg^−1, ICR mice, n = 10, 14 days): all mice survived | Body weight (ICR mice; single IV dose of 100 mg kg^−1, daily for 14 days, n = 10): normal body weight compared to the saline group | H&E histology of kidney, liver and spleen (ICR mice; single IV dose of 100 mg kg^−1, day 14, n = 2): no obvious toxicity on major organs | Blood biochemistry (K+, Na+, ALT, AST, BUN, CREA) (ICR mice; single IV dose of 100 mg kg^−1, day 14, n = 8): did not cause significant changes in blood biochemical indicators | Reduction of colonies, log CFU per eye (C. albicans SC5314; PDAP20 15 mg mL^−1 eye drops): 1.2 log CFU per eye | MIC at high fungal cell concentration (TEM conditions) (C. albicans; 1.0 × 10^8 CFU mL^−1, fungal species not stated at the place): 50 µg/mL | MIC at high fungal cell concentration (other mechanism experiments) (C. albicans; 3.0 × 10^6 CFU mL^−1, fungal species not stated at the place): 12.5 µg/mL | Effect of increasing K+ on antifungal activity (C. albicans; K+ up to 20 × 10^−3 M, C. albicans K1): didn't affect | MIC C. albicans K1, standard MIC test in RPMI 1640 (C. albicans; Na+ 103 mM, K+ 5.4 mM): 0.8 µg/mL | MIC C. albicans K1, K+ ↑ (C. albicans; Na+ 103 mM, K+ 10 mM): 0.8 µg/mL | MIC C. albicans K1, K+ ↑ (C. albicans; Na+ 103 mM, K+ 20 mM): 0.8 µg/mL | MIC C. albicans K1, physiological salt concentration (C. albicans; Na+ 150 mM, K+ 5.4 mM): 1.6 μg/mL | MIC C. albicans K1, Na+ ↑ (C. albicans; Na+ 200 mM, K+ 5.4 mM): 3.1 µg/mL | MIC C. albicans K1, Na+ ↑ (C. albicans; Na+ 300 mM, K+ 5.4 mM): 6.3 µg/mL | MIC C. albicans K1, Na+ ↑, K+ ↑ (C. albicans; Na+ 300 mM, K+ 20 mM): 6.3 µg/mL | MIC C. albicans K1 on increase of Na+ (range) (C. albicans; Na+ from 150 × 10^−3 to 300 × 10^−3 M): 1.6 to 6.3 µg/mL

— publication PMC9108603, “Microbial Metabolite Inspired β‐Peptide Polymers Displaying Potent and Selective Antifungal Activity” (Advanced Science, 2022)
